Test results as given in patent US20070219239A1, “Nitrogen-containing heterocycle derivatives, pharmaceutical compositions, and methods of use thereof as antiviral agents” (priority 2006, published 2007).

Test system: vaccinia virus
Assay: microbe, parasite or virus in culture
Format: cell-based
Details: Orthopoxvirus vaccinia, BSC-40, in Chlorocebus sabaeus, read-out: EC50 (inhibition of viral replication)

Structure (SMILES): C[C@@H](NC(=O)c1cc(Cl)cc(-c2c[nH]c(-c3cc4ccccc4cn3)n2)c1)c1ccc(F)cc1 [Example 5, N-[(1R)-1-(4-fluorophenyl)ethyl]-3-(2-isoquinoline-3-yl-1H-imidazol-4-yl)-5-chlorobenzamide]
- EC50: ≤ 500 nM

Structure (SMILES): C[C@@H](NC(=O)c1cc(NC(=O)C(C)(C)F)cc(-c2c[nH]c(-c3cc4ccccc4cn3)n2)c1)c1ccc(F)cc1 [Example 17, N-[(1R)-1-(4-fluorophenyl)ethyl]-3-(2-isoquinoline-3-yl-1H-imidazol-4-yl)-5-(2-fluoroisobutyrylamino)benzamide]
- EC50: ≤ 500 nM

Structure (SMILES): C[C@@H](NC(=O)c1cc(NC(=O)C(C)(C)C)cc(-c2c[nH]c(-c3cc4ccccc4cn3)n2)c1)c1ccc(F)cc1 [Example 15]
- EC50: ≤ 500 nM

Structure (SMILES): CC(C)C(=O)Nc1cc(C(=O)N[C@H](C)c2ccc(F)cc2)cc(-c2c[nH]c(-c3cc4ccccc4cn3)n2)c1 [Example 1]
- EC50: ≤ 500 nM

Structure (SMILES): C[C@@H](NC(=O)c1cccc(-c2c[nH]c(-c3cc4ccccc4cn3)n2)c1)c1ccc(F)cc1 [Example 6, N-[(1R)-1-(4-fluorophenyl)ethyl]-3-(2-isoquinoline-3-yl-1H-imidazol-4-yl)benzamide]
- EC50: ≤ 500 nM
